Experimental findings from patent US9580437B2, “Triazolopyrimidine compounds and uses thereof” (Novartis AG, priority 2014, dated 2017) are described below.

One assay has as its target EED (1-441)-His protein (Homo sapiens (Human), UniProt O75530). The assay can be described thus: EED-H3K27Me3 peptide competition binding assay by AlphaScreen. The note with it: read-out: (a) IC50 EED Alphascreen binding Qualified. From the text:
EED-H3K27Me3 peptide competition binding assay by AlphaScreen (α-screen)

Assay [1] has as its target wild type PRC2 (wtPRC2) complex (Homo sapiens (Human), UniProt O75530). The assay can be described thus: EED LC-MS assay. Format: biochemical. The conditions noted are these: read-out: (b) IC50 EED LC-MS Qualified. The protocol: A 6 μL solution of 3 μM of the peptide substrate H3K27Me0 (histone H3[21-44]-biotin) in reaction buffer was added to initiate each reaction. […] ELISA (H3K27 Methylation) Assay

Each structure is given as a SMILES string.

Sequence of EED (1-441)-His protein (O75530 whole entry): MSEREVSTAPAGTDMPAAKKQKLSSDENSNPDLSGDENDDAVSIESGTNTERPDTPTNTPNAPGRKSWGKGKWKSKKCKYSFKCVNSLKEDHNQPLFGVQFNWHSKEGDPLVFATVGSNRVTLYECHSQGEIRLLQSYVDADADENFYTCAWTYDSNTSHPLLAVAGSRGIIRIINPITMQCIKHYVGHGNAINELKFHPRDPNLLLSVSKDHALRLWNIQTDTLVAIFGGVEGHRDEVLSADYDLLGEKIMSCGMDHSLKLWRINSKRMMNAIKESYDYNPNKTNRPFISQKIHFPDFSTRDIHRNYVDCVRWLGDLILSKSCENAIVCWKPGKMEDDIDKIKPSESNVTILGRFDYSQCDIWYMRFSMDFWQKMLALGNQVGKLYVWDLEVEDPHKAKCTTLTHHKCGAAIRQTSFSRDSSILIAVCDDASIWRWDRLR
Sequence of wild type PRC2 (wtPRC2) complex (O75530 whole entry): as above
Sequence of wild type PRC2 (wtPRC2) complex (Q15910 whole entry partner): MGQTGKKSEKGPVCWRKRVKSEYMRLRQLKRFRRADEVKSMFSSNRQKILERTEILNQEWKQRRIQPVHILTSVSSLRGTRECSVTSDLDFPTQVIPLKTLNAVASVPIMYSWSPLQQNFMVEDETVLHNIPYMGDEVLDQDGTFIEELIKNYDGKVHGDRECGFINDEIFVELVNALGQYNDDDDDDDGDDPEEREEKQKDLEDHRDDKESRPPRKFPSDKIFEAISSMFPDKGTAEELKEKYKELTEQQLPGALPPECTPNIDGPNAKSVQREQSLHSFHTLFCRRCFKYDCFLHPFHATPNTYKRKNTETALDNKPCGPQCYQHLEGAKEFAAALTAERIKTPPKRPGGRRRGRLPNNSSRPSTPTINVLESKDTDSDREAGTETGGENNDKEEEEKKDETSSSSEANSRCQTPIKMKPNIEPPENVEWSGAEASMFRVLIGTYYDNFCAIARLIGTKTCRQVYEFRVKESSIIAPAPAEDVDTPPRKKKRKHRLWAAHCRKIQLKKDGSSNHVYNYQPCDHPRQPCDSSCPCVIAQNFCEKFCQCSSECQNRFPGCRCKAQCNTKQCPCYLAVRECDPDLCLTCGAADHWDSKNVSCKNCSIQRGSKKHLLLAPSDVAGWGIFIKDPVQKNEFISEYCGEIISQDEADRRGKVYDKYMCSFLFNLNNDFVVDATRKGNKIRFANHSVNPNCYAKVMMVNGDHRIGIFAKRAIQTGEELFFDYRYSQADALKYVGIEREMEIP
Sequence of wild type PRC2 (wtPRC2) complex (Q15022 whole entry partner): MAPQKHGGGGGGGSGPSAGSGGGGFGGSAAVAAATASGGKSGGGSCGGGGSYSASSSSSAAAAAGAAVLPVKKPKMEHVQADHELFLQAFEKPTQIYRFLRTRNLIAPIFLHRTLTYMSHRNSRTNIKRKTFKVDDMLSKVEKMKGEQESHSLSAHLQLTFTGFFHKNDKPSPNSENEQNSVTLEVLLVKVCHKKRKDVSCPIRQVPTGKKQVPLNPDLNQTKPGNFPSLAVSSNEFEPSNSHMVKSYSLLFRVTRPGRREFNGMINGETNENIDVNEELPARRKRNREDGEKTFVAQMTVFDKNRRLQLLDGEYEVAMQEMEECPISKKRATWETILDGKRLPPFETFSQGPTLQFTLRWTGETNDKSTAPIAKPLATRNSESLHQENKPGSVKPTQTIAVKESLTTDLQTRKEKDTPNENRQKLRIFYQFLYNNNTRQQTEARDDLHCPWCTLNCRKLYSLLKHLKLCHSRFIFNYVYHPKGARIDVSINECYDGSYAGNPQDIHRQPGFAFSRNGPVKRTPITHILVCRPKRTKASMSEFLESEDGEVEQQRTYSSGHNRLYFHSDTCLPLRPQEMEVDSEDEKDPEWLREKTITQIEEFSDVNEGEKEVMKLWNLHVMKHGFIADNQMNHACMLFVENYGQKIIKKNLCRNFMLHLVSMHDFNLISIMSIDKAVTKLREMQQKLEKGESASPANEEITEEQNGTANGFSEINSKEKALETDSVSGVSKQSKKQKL

In general, IC50 refers to the concentration that inhibits the measured activity by half. As for `Fc1ccc2c(c1CNc1ncc(-c3cccnc3F)c3nncn13)CCO2` [Example 115, N-((5-fluoro-2,3-dihydrobenzofuran-4-yl)methyl)-8-(2-fluoropyridin-3-yl)-[1,2,4]triazolo[4,3-c]pyrimidin-5-amine], the figures for the 50% inhibitory concentration (IC50) (at EED (1-441)-His protein; in assay [1]) were 4.7 nM and 6.9 nM, respectively.
On the same counts, the results for `Fc1ccc2c(c1CNc1ncc(-c3ccncc3Cl)c3nncn13)CCO2` [Example 162, 8-(3-chloropyridin-4-yl)-N-((5-fluoro-2,3-dihydrobenzofuran-4-yl)methyl)-[1,2,4]triazolo[4,3-c]pyrimidin-5-amine] are 5.7 nM and 21.1 nM.
The like results for `FC(F)Oc1ccc(-c2cnc(NCc3cccc4c3CCO4)n3cnnc23)cn1` [Example 78, 8-(6-(difluoromethoxy)pyridin-3-yl)-N-((2,3-dihydrobenzofuran-4-yl)methyl)-[1,2,4]triazolo[4,3-c]pyrimidin-5-amine] were, in that order, 103 nM and 160 nM.
The like results for `Fc1ccc2c(c1CNc1ncc(-c3cccnc3C(F)F)c3nncn13)CCO2` [Example 168, 8-(2-(difluoromethyl)pyridin-3-yl)-N-((5-fluoro-2,3-dihydrobenzofuran-4-yl)methyl)-[1,2,4]triazolo[4,3-c]pyrimidin-5-amine] were, in that order, 4.6 nM and 11.2 nM.
For `O=CN1CCN(c2ccc(-c3cnc(NCc4cccc5c4CCO5)n4cnnc34)cn2)CC1` [Example 134, 4-(5-(5-(((2,3-dihydrobenzofuran-4-yl)methyl)amino)-[1,2,4]triazolo[4,3-c]pyrimidin-8-yl)pyridin-2-yl)piperazine-1-carbaldehyde], the IC50 at EED (1-441)-His protein stood at 17.3 nM; in assay [1], 30.5 nM.
On the same counts, the results for `O=C1OCCN1c1ccc(-c2cnc(NCc3cccc4c3CCO4)n3cnnc23)cn1` [Example 117, 3-(5-(5-(((2,3-dihydrobenzofuran-4-yl)methyl)amino)-[1,2,4]triazolo[4,3-c]pyrimidin-8-yl)pyridin-2-yl)oxazolidin-2-one] are 23.5 nM and 29.4 nM.
On the same counts, the results for `Cc1noc(C)c1-c1cnc(NCc2c(F)ccc3c2CCO3)n2cnnc12` [Example 71, 8-(3,5-dimethylisoxazol-4-yl)-N-((5-fluoro-2,3-dihydrobenzofuran-4-yl)methyl)-[1,2,4]triazolo[4,3-c]pyrimidin-5-amine] are 9 nM and 18.9 nM.
As for `CN1CCN(c2cc(-c3cnc(NCc4cccc5c4CCO5)n4cnnc34)ccn2)CC1` [Example 18, N-((2,3-dihydrobenzofuran-4-yl)methyl)-8-(2-(4-methylpiperazin-1-yl)pyridin-4-yl)-[1,2,4]triazolo[4,3-c]pyrimidin-5-amine], the IC50 on EED (1-441)-His protein came out at 18.5 nM; in assay [1], 27.9 nM.
The like results for `CS(=O)(=O)Nc1ccc(-c2cnc(NCc3c(F)ccc4c3CCO4)n3cnnc23)cc1F` [Example 39, N-(2-fluoro-4-(5-(((5-fluoro-2,3-dihydrobenzofuran-4-yl)methyl)amino)-[1,2,4]triazolo[4,3-c]pyrimidin-8-yl)phenyl)methanesulfonamide] were, in that order, 17.8 nM and 17.5 nM.
As to `Cc1cn(-c2cnc(NCc3c(F)ccc4c3CCO4)n3cnnc23)cn1` [Example 233, N-((5-fluoro-2,3-dihydrobenzofuran-4-yl)methyl)-8-(4-methyl-1H-imidazol-1-yl)-[1,2,4]triazolo[4,3-c]pyrimidin-5-amine], the IC50 was found to be 3.9 nM on EED (1-441)-His protein and 11.5 nM in assay [1].
On the same counts, the results for `Cc1nc(OC2CC2)ncc1-c1cnc(NCc2c(F)ccc3c2CCO3)n2cnnc12` [Example 225, 8-(2-cyclopropoxy-4-methylpyrimidin-5-yl)-N-((5-fluoro-2,3-dihydrobenzofuran-4-yl)methyl)-[1,2,4]triazolo[4,3-c]pyrimidin-5-amine] are 7.5 nM and 10.6 nM.
The like results for `Cc1nn(C(C)C)c(C)c1-c1cnc(NCc2c(F)ccc3c2CCO3)n2cnnc12` [Example 151, N-((5-fluoro-2,3-dihydrobenzofuran-4-yl)methyl)-8-(1-isopropyl-3,5-dimethyl-1H-pyrazol-4-yl)-[1,2,4]triazolo[4,3-c]pyrimidin-5-amine] were, in that order, 13.1 nM and 21.6 nM.
On the same counts, the results for `CS(=O)(=O)c1ccc(-c2cnc(NCc3cccc4occc34)n3cnnc23)cc1` [Example 214, N-(benzofuran-4-ylmethyl)-8-(4-(methylsulfonyl)phenyl)-[1,2,4]triazolo[4,3-c]pyrimidin-5-amine] are 37.4 nM and 22.5 nM.
Take `CN(C)CCc1ccc(-c2cnc(NCc3cccc4c3CCO4)n3cnnc23)cc1` [Example 35, N-((2,3-dihydrobenzofuran-4-yl)methyl)-8-(4-(2-(dimethylamino)ethyl)phenyl)-[1,2,4]triazolo[4,3-c]pyrimidin-5-amine]: the IC50 on EED (1-441)-His protein turned out to be 8.3 nM; in assay [1], 15.3 nM.
The like results for `Cc1nc(C2CC2)ccc1-c1cnc(NCc2c(F)ccc3c2CCO3)n2cnnc12` [Example 6, 8-(6-Cyclopropyl-2-methylpyridin-3-yl)-N-((5-fluoro-2,3-dihydrobenzofuran-4-yl)methyl)-[1,2,4]triazolo[4,3-c]pyrimidin-5-amine] were, in that order, 5.2 nM and 7.7 nM.
The like results for `Fc1ccccc1-c1cnc(NCc2cccc3c2CCO3)n2cnnc12` [Example 31, N-((2,3-dihydrobenzofuran-4-yl)methyl)-8-(2-fluorophenyl)-[1,2,4]triazolo[4,3-c]pyrimidin-5-amine] were, in that order, 30.2 nM and 21.5 nM.
Consider `CN(C)Cc1ccc(-c2cnc(NCc3cccc4occc34)n3cnnc23)cc1` [Example 208, N-(benzofuran-4-ylmethyl)-8-(4-((dimethylamino)methyl)phenyl)-[1,2,4]triazolo[4,3-c]pyrimidin-5-amine], for which the figures for the IC50 (on EED (1-441)-His protein; in assay [1]) were 6.2 nM and 12.7 nM, respectively.
The like results for `Fc1ccc2c(c1CNc1ncc(-c3ccnnc3)c3nncn13)CCO2` [Example 202, N-((5-fluoro-2,3-dihydrobenzofuran-4-yl)methyl)-8-(pyridazin-4-yl)-[1,2,4]triazolo[4,3-c]pyrimidin-5-amine] were, in that order, 9.6 nM and 18.7 nM.
The like results for `CS(=O)(=O)CCOc1cncc(-c2cnc(NCc3cccc4c3CCO4)n3cnnc23)c1` [Example 106, N-((2,3-dihydrobenzofuran-4-yl)methyl)-8-(5-(2-(methylsulfonyl)ethoxy)pyridin-3-yl)-[1,2,4]triazolo[4,3-c]pyrimidin-5-amine] were, in that order, 25 nM and 34.1 nM.
For the molecule `O=S(=O)(c1ccc(-c2cnc(NCc3cccc4c3CCO4)n3cnnc23)cc1)C1CCNCC1` [Example 29, N-((2,3-dihydrobenzofuran-4-yl)methyl)-8-(4-(piperidin-4-ylsulfonyl)phenyl)-[1,2,4]triazolo[4,3-c]pyrimidin-5-amine], the figures for the IC50 (on EED (1-441)-His protein; in assay [1]) were 8.1 nM and 14.5 nM, respectively.
On the same counts, the results for `Cc1nn(C[C@H](C)O)c(C)c1-c1cnc(NCc2c(F)ccc3c2CCO3)n2cnnc12` [Example 187, (2S)-1-(4-(5-(((5-fluoro-2,3-dihydrobenzofuran-4-yl)methyl)amino)-[1,2,4]triazolo[4,3-c]pyrimidin-8-yl)-3,5-dimethyl-1H-pyrazol-1-yl)propan-2-ol] are 8.2 nM and 12.5 nM.
